Measured values: patent US20130317009A1 (priority 2012, published 2013)
Values joined by “and” are separate entries in the source; they are usually repeats but may differ in a detail not shown here. Equal entries are not always repeated. Structures can show the parent of a compound that is named as a salt.

Legend:
rat = test: animal or person; type: in vivo; settings: for ED50: Rattus norvegicus, 0.25 h, read-out: ED50 (95% CI) second pharmacologically active ingredient
male Sprague-Dawley rats = settings: rat, in vivo

Structure (SMILES) | ED50 (rat; ip) [mg/kg] | timepoint of peak effect (rat; rat, in vivo) [min p. appl.] | % MPE (Maximum possible effect) 60 min. (male Sprague-Dawley rats) [% MPE] | % MPE (Maximum possible effect) 180 min. (male Sprague-Dawley rats) [% MPE] | % MPE (Maximum possible effect) 30 min. (male Sprague-Dawley rats; dihydrochloride) | ED50 (95% CI) second pharmacologically active ingredient (rat; rat, in vivo, ip)
COC[C@@H](NC(C)=O)C(=O)NCc1ccccc1 [lacosamide] | 35.3 | 15 | – | – | – | –
CC[C@@H](C(N)=O)N1CCCC1=O [Levetiracetam, levetiracetam] | 986 | 15 | – | – | – | –
CCOC(=O)Nc1ccc(NCc2ccc(F)cc2)cc1N [retigabine dihydrochloride] | 5.09 | 15 | −2.0 ± 7.9 | −2.8 ± 8.0 | 23.1 % MPE and 23.1 ± 5.0 % MPE | –
NC(=O)N1c2ccccc2C=Cc2ccccc21 [carbamazepine] | 30 | 15 | – | – | – | –
Nc1nnc(-c2cccc(Cl)c2Cl)c(N)n1 [lamotrigine] | 30 | 15 | – | – | – | 35253 μg/kg and 35253 (38082-32740) μg/kg
